In patent US10294202B2, “Pyrrolidinones as herbicides” (FMC Corporation, priority 2013, dated 2019):

Legend:
barnyardgrass [1] = test: Test A pre-/postemergence herbicide test; type: in vivo, Echinochloa crus-galli
How it was run: (§1)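 Formulated compound (non-phytotoxic solvent, surfactant) sprayed pre- onto soil of seeded loam/sand pots or post- onto seedlings at 1–2 leaves; ~10 d greenhouse; 0–100 visual control rating versus untreated.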

crabgrass, large = test: Test A pre-/postemergence herbicide test; type: in vivo, Digitaria sanguinalis
How it was run: as §1

giant foxtail = test: Test A pre-/postemergence herbicide test; type: in vivo, Setaria faberii
How it was run: as §1

morningglory = test: Test A pre-/postemergence herbicide test; type: in vivo, Ipomoea spp.
How it was run: as §1

pigweed = test: Test A pre-/postemergence herbicide test; type: in vivo, Amaranthus retroflexus
How it was run: as §1

velvetleaf = test: Test A pre-/postemergence herbicide test; type: in vivo, Abutilon theophrasti
How it was run: as §1

wheat = test: Test A pre-/postemergence herbicide test; type: in vivo, Triticum aestivum
How it was run: as §1

corn = test: Test A pre-/postemergence herbicide test; type: in vivo, Zea mays
How it was run: as §1

rice = test: Test B flooded paddy test; type: in vivo, Oryza sativa; conditions: 250 g ai/ha, Flood; scale of 0 to 100 where 0 is no effect and 100 is complete control
How it was run: (§2)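 Plants grown to 2-leaf stage; pots flooded 3 cm above soil and compound applied directly into paddy water, depth held throughout. Visual rating against untreated controls after 13 to 15 days in greenhouse, 0 (no effect) to 100 (complete control).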

sedge, umbrella = test: Test B flooded paddy test; type: in vivo, Cyperus difformis; conditions: 250 g ai/ha, Flood; scale of 0 to 100 where 0 is no effect and 100 is complete control
How it was run: as §2

ducksalad = test: Test B flooded paddy test; type: in vivo, Heteranthera limosa; conditions: 250 g ai/ha, Flood; scale of 0 to 100 where 0 is no effect and 100 is complete control
How it was run: as §2

barnyardgrass [2] = test: Test B flooded paddy test; type: in vivo, Echinochloa crus-galli; conditions: 250 g ai/ha, Flood; scale of 0 to 100 where 0 is no effect and 100 is complete control
How it was run: as §2

[3] = Postemergence, 1000 g ai/ha, 0 to 100 scale (0 no effect, 100 complete control)
[4] = Preemergence, 1000 g ai/ha, visual rating on 0 to 100 scale (0 no effect, 100 complete control), approx. 10 days
[5] = Postemergence, 125 g ai/ha, 0 to 100 scale, 0 no effect, 100 complete control
[6] = Postemergence, 500 g ai/ha, 0 to 100 scale (0 no effect, 100 complete control)
[7] = Preemergence, 125 g ai/ha, visual rating on 0 to 100 scale (0 no effect, 100 complete control)
[8] = preemergence, 500 g ai/ha, 0 to 100 scale (0 no effect, 100 complete control)
[9] = preemergence, 500 g ai/ha, 0 to 100 scale

Cc1ccccc1NC(=O)C1C(=O)NCC1c1ccc(Cl)c(Cl)c1 (stereo not shown) [Compound 40]
30: Plant response rating, Corn (corn; [4])
20: Plant response rating, Wheat (wheat; [3]) | Plant response rating, Wheat (wheat; [4]) | Plant response rating, Corn (corn; [3])
80: Plant response rating, Barnyardgrass (barnyardgrass [1]; [3])
10: Plant response rating, Morningglory (morningglory; [3])
0: Plant response rating, Morningglory (morningglory; [4]) | Plant response rating, Pigweed (pigweed; [3]) | Plant response rating, Pigweed (pigweed; [4]) | Plant response rating, Velvetleaf (velvetleaf; [3]) | Plant response rating, Velvetleaf (velvetleaf; [4]) | Plant response rating, Rice (rice) | Plant response rating, Sedge, Umbrella (sedge, umbrella) | Plant response rating, Ducksalad (ducksalad) | Plant response rating, Barnyardgrass (barnyardgrass [2])
90: Plant response rating, Barnyardgrass (barnyardgrass [1]; [4]) | Plant response rating, Crabgrass, Large (crabgrass, large; [3]) | Plant response rating, Crabgrass, Large (crabgrass, large; [4]) | Plant response rating, Foxtail, Giant (giant foxtail; [3]) | Plant response rating, Foxtail, Giant (giant foxtail; [4])

O=C1NCC(c2ccc(Cl)nc2)C1C(=O)Nc1ccccc1F (stereo not shown) [Compound 41]
50: Plant response rating, Barnyardgrass (barnyardgrass [1]; [6])
0: Plant response rating, Barnyardgrass (barnyardgrass [1]; [5]) | Plant response rating, Foxtail, Giant (giant foxtail; [5]) | Plant response rating, Foxtail, Giant (giant foxtail; [6]) | Plant response rating, Morningglory (morningglory; [5]) | Plant response rating, Morningglory (morningglory; [6]) | Plant response rating, Pigweed (pigweed; [5]) | Pigweed plant response rating (pigweed; [7]) | Plant response rating, Pigweed (pigweed; [9]) | Plant response rating, Velvetleaf (velvetleaf; [5]) | Velvetleaf plant response rating (velvetleaf; [7]) | Plant response rating, Velvetleaf (velvetleaf; [9]) | Plant response rating, Wheat (wheat; [5]) | Plant response rating, Wheat (wheat; [6]) | Wheat plant response rating (wheat; [7]) | Plant response rating, Wheat (wheat; [9]) | Plant response rating, Corn (corn; [5]) | Plant response rating, Corn (corn; [6]) | Corn plant response rating (corn; [7]) | Plant response rating, Corn (corn; [9]) | Plant response rating, Rice (rice) | Plant response rating, Barnyardgrass (barnyardgrass [2])
10: Foxtail, Giant plant response rating (giant foxtail; [7])
30: Barnyardgrass plant response rating (barnyardgrass [1]; [7]) | Plant response rating, Crabgrass, Large (crabgrass, large; [5]) | Plant response rating, Pigweed (pigweed; [6]) | Plant response rating, Velvetleaf (velvetleaf; [6])
70: Plant response rating, Foxtail, Giant (giant foxtail; [9]) | Plant response rating, Ducksalad (ducksalad)
20: Plant response rating, Sedge, Umbrella (sedge, umbrella)
90: Plant response rating, Crabgrass, Large (crabgrass, large; [9])
60: Plant response rating, Barnyardgrass (barnyardgrass [1]; [8]) | Plant response rating, Crabgrass, Large (crabgrass, large; [6]) | Crabgrass, Large plant response rating (crabgrass, large; [7])

O=C1NCC(c2ccc(F)c(F)c2)C1C(=O)Nc1ccccn1 (stereo not shown) [Compound 45]
60: Plant response rating, Crabgrass, Large (crabgrass, large; [5])
10: Barnyardgrass plant response rating (barnyardgrass [1]; [7])
0: Morningglory plant response rating (morningglory; [7]) | Plant response rating, Morningglory (morningglory; [9]) | Plant response rating, Pigweed (pigweed; [5]) | Plant response rating, Pigweed (pigweed; [6]) | Pigweed plant response rating (pigweed; [7]) | Plant response rating, Pigweed (pigweed; [9]) | Plant response rating, Velvetleaf (velvetleaf; [5]) | Plant response rating, Velvetleaf (velvetleaf; [6]) | Velvetleaf plant response rating (velvetleaf; [7]) | Plant response rating, Velvetleaf (velvetleaf; [9]) | Plant response rating, Wheat (wheat; [5]) | Plant response rating, Wheat (wheat; [6]) | Wheat plant response rating (wheat; [7]) | Plant response rating, Wheat (wheat; [9]) | Corn plant response rating (corn; [7]) | Plant response rating, Corn (corn; [9]) | Plant response rating, Barnyardgrass (barnyardgrass [2])
20: Plant response rating, Foxtail, Giant (giant foxtail; [5]) | Plant response rating, Rice (rice)
80: Plant response rating, Barnyardgrass (barnyardgrass [1]; [6]) | Plant response rating, Barnyardgrass (barnyardgrass [1]; [8]) | Plant response rating, Crabgrass, Large (crabgrass, large; [6]) | Crabgrass, Large plant response rating (crabgrass, large; [7]) | Plant response rating, Foxtail, Giant (giant foxtail; [9]) | Plant response rating, Ducksalad (ducksalad)
70: Plant response rating, Foxtail, Giant (giant foxtail; [6])
40: Plant response rating, Morningglory (morningglory; [5]) | Plant response rating, Sedge, Umbrella (sedge, umbrella)
50: Plant response rating, Barnyardgrass (barnyardgrass [1]; [5]) | Foxtail, Giant plant response rating (giant foxtail; [7]) | Plant response rating, Morningglory (morningglory; [6])
90: Plant response rating, Crabgrass, Large (crabgrass, large; [9])
